Test results reported in article PMC5489165, “Identification of benzazole compounds that induce HIV-1 transcription” (PLoS ONE, 2017).
Read-outs that look alike come from different tables or passages of the source.

Legend:
[1] = tested on: NF-κB response element reporter in Jurkat cells; experiment: NF-κB-responsive Fluc reporter in Jurkat cells; assay type: cell-based, human; settings: stably-transfected Jurkat cells, 4 h
From the text: The vector pGL4.32[luc2P/NF-κB-RE/Hygro] was purchased from Promega (Madison, WI), encoding 5 copies of a NF-κB response element driving expression of synthetic firefly luciferase gene, luc2, including a PEST destabilization sequence. Jurkat cells were transfected with this vector using a Gene Pulser® II (Biorad, Hercules, CA) with a 0.4 cm gap cuvette at 0.2 kV and 960 μF. Cells were allowed to recover for three days in RPMI-1640 with 10% FBS and 1% penicillin/streptomycin before selection with 200 μg/ml Hygromycin B for one month. Pooled, stably-transfected cells were plated at 50,000/well in 96-well plates and treated with test compounds in a final concentration of 0.5% DMSO for 4 h at 37°C. Luciferase activity was determined by adding one volume 2× steadylite plus reagent (Perkin Elmer, Waltham, MA) and reading on a ViewLux microplate imager.

[2] = Pharmacokinetics in CD-1 mice; assay type: in vivo; settings: mouse, 10 mg/kg, PO
Method: All animal studies were performed in compliance with IACUC approved protocols at AAALAC-certified animal facilities. Pharmacokinetics of test compounds were evaluated in CD-1 mice (Charles River Laboratories, Wilmington, MA). Compounds were formulated as a suspension in 0.5% hydroxypropylmethyl cellulose with 0.1% Tween 80 and administered by gavage at a dose of 10 mg/kg. […] Mice were anaesthetized with CO2 followed by terminal exsanguination as per the Guide for the Care and Use of Laboratory Animals. Blood was collected by terminal cardiac puncture at 1, 2, 4, 7, 16, and 24 h post-dose (3 mice per time point), and centrifuged to collect plasma. Brain tissue was collected at the time of blood collection and homogenized in water. The concentrations of test compound in plasma and brain tissue were quantified by liquid chromatography-tandem mass spectrometry (LC-MS/MS). Briefly, the plasma and tissue homogenate samples were treated with an acetonitrile-methanol mixture containing an internal standard that is a close structural analog of the test compounds. The treated plasma and brain homogenate samples were centrifuged and the supernatant was collected and analyzed using electro-spray LC-MS/MS.

IL-2 secretion by PBMCs = experiment: IL-2 ELISA in PBMCs; assay type: cell-based, human; settings: 24 h
Method: Cryopreserved PBMCs from a single donor were thawed in RPMI-1640 plus 10% FBS. PBMCs were plated at 5×10^4/well in 96-well plates and compound was added with a final concentration of 0.5% DMSO. Plates were incubated for 24 h at 37°C, 5% CO2. Interleukin-2 was quantified using Human IL-2 DuoSet ELISA (R&D Systems, Minneapolis, MN). Raw data were converted to ng/ml IL-2 using a standard curve obtained in parallel.

[3] = Cytotoxicity assay in SupT1 cells (ATP, CellTiter-Glo); assay type: cell-based; settings: human; for selectivity ratio at 72 h: read-out: Selective window, CC50 versus EC2X
Method: SupT1 cells were plated at 100,000 per well in 96-well, white-walled plates with serial dilutions of test compound in a total volume of 100 μl RPMI-1640 medium containing 10% FBS and 0.5% DMSO. PBMCs were plated similarly at 50,000 cells/well and stimulated by addition of 40 μg/ml PHA and 80 ng/ml interleukin-2 (IL-2). Cells were incubated for 72 h at 37°C, 5% CO2. ATP was quantified using the CellTiter-Glo Luminescent Cell Viability Assay (Promega, Madison, WI) on a ViewLux microplate imager (Perkin Elmer, Waltham, MA). Percent cytotoxicity was determined relative to vehicle-only treated wells.

[4] = tested on: Epstein-Barr virus (EBV) in Raji cells; experiment: EBV activation assay in Raji cells (BZLF1 qRT-PCR); assay type: cell-based
[5] = CD-1, brain, read-out: AUC0-24, brain
[6] = CD-1, plasma, read-out: AUC0-24, plasma
[7] = SupT1 cells, ATP quantification, 72 h, read-out: CC50, SupT1

Compound	Induction of NF-κB driven reporter (in words) [1]	AUC(0-t) [2, 5]	Cmax ([2]; CD-1, plasma)	AUC(0-t) [2, 6]	Cmax, brain [2]	IL-2 secretion by PBMCs (in words) (IL-2 secretion by PBMCs)	CC50 at 72 h [3, 7]	selectivity ratio at 72 h ([3]; SupT1 cells)	Effect on BLZF1 mRNA (EBV) [4]	selectivity ratio at 72 h ([3]; SupT1 cells, with regards to respective EC2X (SEAP reporter))	CC50 at 72 h ([3]; T cells (SupT1) and PBMCs, read-out: CC50 across cytotoxicity assays)	Effect on BLZF1 mRNA (EBV) ([4]; Raji cells, 24 h, up to 100 μM)
Nc1ccc2[nH]c(-c3ccc(-c4nc5ccc(N)cc5o4)cc3)nc2c1 [Compound 2]	Neither Compound 1 nor Compound 2 induced	0.054 µM·h	180 nM	0.92 µM·h	54 nM	neither Compound 1 nor 2 increased secretion of IL-2	> 100 µM	≥ 3	little effect	–	–	–
Nc1ccc2[nH]c(-c3ccc(-c4nc5cc(N)ccc5o4)cc3)nc2c1 [Compound 1, 2-(4-(5-amino-1H-benzimidazol-2-yl)phenyl)benzoxazol-5-amine]	Neither Compound 1 nor Compound 2 induced	0.12 µM·h	550 nM	2.2 µM·h	65 nM	neither Compound 1 nor 2 increased secretion of IL-2	5.2 ± 1.1 µM	–	–	≥ 3	5 to 18 µM	little effect
